What follows are compounds tested against TRKA (Homo sapiens (Human), UniProt P04629) (assay: Isolated TRK enzyme assay (HTRF KinEASE-TK), TRKA). Settings: read-out: Trka enzyme (IC50).
TRKA, sequence (P04629 441-796): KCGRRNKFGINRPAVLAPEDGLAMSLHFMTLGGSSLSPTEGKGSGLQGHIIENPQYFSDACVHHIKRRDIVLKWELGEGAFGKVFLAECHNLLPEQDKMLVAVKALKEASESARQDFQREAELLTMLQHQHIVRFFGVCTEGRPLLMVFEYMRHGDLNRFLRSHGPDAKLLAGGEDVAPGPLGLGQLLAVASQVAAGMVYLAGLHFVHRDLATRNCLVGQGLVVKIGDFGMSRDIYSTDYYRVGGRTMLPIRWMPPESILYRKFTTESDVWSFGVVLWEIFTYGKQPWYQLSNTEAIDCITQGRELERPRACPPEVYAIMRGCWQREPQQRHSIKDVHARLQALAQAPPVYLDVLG
Format: biochemical
For CC(C)n1cc(C(=O)c2cncc(NC(=O)Cc3cncc(OC4CC4)c3)c2)c2cncnc21 [Example 91, 2-[5-(cyclopropyloxy)pyridin-3-yl]-N-{5-[(7-isopropyl-7H-pyrrolo[2,3-d]pyrimidin-5-yl)carbonyl]pyridin-3-yl}acetamide], the IC50 was 1.03 µM. CC(C)n1cc(C(=O)c2cncc(NC(=O)Cc3ccc4c(c3)CCO4)c2)c2cncnc21 [Example 92, 2-(2,3-dihydro-1-benzofuran-5-yl)-N-{5-[(7-isopropyl-7H-pyrrolo[2,3-d]pyrimidin-5-yl)carbonyl]pyridin-3-yl}acetamide] showed an IC50 of 0.0415 µM. In the case of CC(C)n1cc(C(=O)c2cncc(NC(=O)Cn3cc4ccccc4n3)c2)c2cncnc21 [Example 93, 2-(2H-indazol-2-yl)-N-{5-[(7-isopropyl-7H-pyrrolo[2,3-d]pyrimidin-5-yl)carbonyl]pyridin-3-yl}acetamide], the IC50 is reported as 0.0124 µM. CC(C)n1cc(C(=O)c2cncc(NC(=O)Cn3cc4cc(F)ccc4n3)c2)c2cncnc21 [Example 94, 2-(5-fluoro-2H-indazol-2-yl)-N-{5-[(7-isopropyl-7H-pyrrolo[2,3-d]pyrimidin-5-yl)carbonyl]pyridin-3-yl}acetamide] showed an IC50 of 0.0548 µM. Work on CC(C)n1cc(C(=O)c2cncc(NC(=O)Cn3ncc4cc(F)ccc43)c2)c2cncnc21 [Example 95, 2-(5-fluoro-1H-indazol-1-yl)-N-{5-[(7-isopropyl-7H-pyrrolo[2,3-d]pyrimidin-5-yl)carbonyl]pyridin-3-yl}acetamide] yielded an IC50 of 0.00395 µM. Work on Cc1cc(C(F)(F)F)nn1CC(=O)Nc1cncc(C(=O)c2cn(C(C)C)c3ncncc23)c1 [Example 96, N-{5-[(7-isopropyl-7H-pyrrolo[2,3-d]pyrimidin-5-yl)carbonyl]pyridin-3-yl}-2-[5-methyl-3-(trifluoromethyl)-1H-pyrazol-1-yl]acetamide] yielded an IC50 of 0.00545 µM. Work on CC(C)n1cc(C(=O)c2cncc(NC(=O)Cn3ccc(C(F)(F)F)n3)c2)c2cncnc21 [Example 97, N-{5-[(7-isopropyl-7H-pyrrolo[2,3-d]pyrimidin-5-yl)carbonyl]pyridin-3-yl}-2-[3-(trifluoromethyl)-1H-pyrazol-1-yl]acetamide] yielded an IC50 of 0.00486 µM. CC(C)n1cc(C(=O)c2cncc(NC(=O)Cc3ccc(Cl)cn3)c2)c2cncnc21 [Example 98, 2-(5-chloropyridin-2-yl)-N-{5-[(7-isopropyl-7H-pyrrolo[2,3-d]pyrimidin-5-yl)carbonyl]pyridin-3-yl}acetamide] gave an IC50 of 0.00516 µM. Work on CC(C)n1cc(C(=O)c2cncc(NC(=O)Cc3ccc4cccnc4c3)c2)c2cncnc21 [Example 100, N-{5-[(7-isopropyl-7H-pyrrolo[2,3-d]pyrimidin-5-yl)carbonyl]pyridin-3-yl}-2-quinolin-7-ylacetamide] yielded an IC50 of 0.0256 µM. For CC(C)n1cc(C(=O)c2cncc(NC(=O)Cn3cc4cccc(F)c4n3)c2)c2cncnc21 [Example 101, 2-(7-fluoro-2H-indazol-2-yl)-N-{5-[(7-isopropyl-7H-pyrrolo[2,3-d]pyrimidin-5-yl)carbonyl]pyridin-3-yl}acetamide], the IC50 was 0.204 µM. Work on CC(C)n1cc(C(=O)c2cncc(NC(=O)Cn3ncc4cccnc43)c2)c2cncnc21 [Example 102, N-{5-[(7-isopropyl-7H-pyrrolo[2,3-d]pyrimidin-5-yl)carbonyl]pyridin-3-yl}-2-(1H-pyrazolo[3,4-b]pyridin-1-yl)acetamide] yielded an IC50 of 0.0429 µM. CC(C)n1cc(C(=O)c2cncc(NC(=O)Cn3ncc4ccccc43)c2)c2cncnc21 [Example 103, 2-(1H-indazol-1-yl)-N-{5-[(7-isopropyl-7H-pyrrolo[2,3-d]pyrimidin-5-yl)carbonyl]pyridin-3-yl}acetamide] showed an IC50 of 0.0417 µM. For Cc1cc(C(C)C)nn1CC(=O)Nc1cncc(C(=O)c2cn(C(C)C)c3ncncc23)c1 [Example 104, 2-(3-isopropyl-5-methyl-1H-pyrazol-1-yl)-N-{5-[(7-isopropyl-7H-pyrrolo[2,3-d]pyrimidin-5-yl)carbonyl]pyridin-3-yl}acetamide], the IC50 was 0.02 µM. For CC(C)c1cn(CC(=O)Nc2cncc(C(=O)c3cn(C(C)C)c4ncncc34)c2)nn1 [Example 105, N-{5-[(7-isopropyl-7H-pyrrolo[2,3-d]pyrimidin-5-yl)carbonyl]pyridin-3-yl}-2-(4-isopropyl-1H-1,2,3-triazol-1-yl)acetamide], the IC50 was 0.0256 µM. Compound CC(C)n1cc(C(=O)c2cncc(NC(=O)Cn3cc(C(F)(F)F)nn3)c2)c2cncnc21 [Example 106, N-{5-[(7-isopropyl-7H-pyrrolo[2,3-d]pyrimidin-5-yl)carbonyl]pyridin-3-yl}-2-[4-(trifluoromethyl)-1H-1,2,3-triazol-1-yl]acetamide] has an IC50 of 0.0148 µM. CC(C)n1cc(C(=O)c2cncc(NC(=O)Cn3ncc4cccc(F)c43)c2)c2cncnc21 [Example 107, 2-(7-fluoro-1H-indazol-1-yl)-N-{5-[(7-isopropyl-7H-pyrrolo[2,3-d]pyrimidin-5-yl)carbonyl]pyridin-3-yl}acetamide] showed an IC50 of 0.0123 µM. In the case of CC(C)n1cc(C(=O)c2cncc(NC(=O)Cn3nc4ccccc4n3)c2)c2cncnc21 [Example 108, 2-(2H-benzotriazol-2-yl)-N-{5-[(7-isopropyl-7H-pyrrolo[2,3-d]pyrimidin-5-yl)carbonyl]pyridin-3-yl}acetamide], the IC50 is reported as 0.00763 µM. With Cc1[nH]c2c(F)cccc2c1CC(=O)Nc1cncc(C(=O)c2cn(C(C)C)c3ncncc23)c1 [Example 109, 2-(7-fluoro-2-methyl-1H-indol-3-yl)-N-{5-[(7-isopropyl-7H-pyrrolo[2,3-d]pyrimidin-5-yl)carbonyl]pyridin-3-yl}acetamide] the IC50 was 0.0651 µM. Work on Cc1[nH]c2ccc(Cl)cc2c1CC(=O)Nc1cncc(C(=O)c2cn(C(C)C)c3ncncc23)c1 [Example 110, 2-(5-chloro-2-methyl-1H-indol-3-yl)-N-{5-[(7-isopropyl-7H-pyrrolo[2,3-d]pyrimidin-5-yl)carbonyl]pyridin-3-yl}acetamide] yielded an IC50 of 0.0365 µM. For CC(C)n1cc(C(=O)c2cncc(NC(=O)Cn3ccc4ccccc43)c2)c2cncnc21 [Example 111, 2-(1H-indol-1-yl)-N-{5-[(7-isopropyl-7H-pyrrolo[2,3-d]pyrimidin-5-yl)carbonyl]pyridin-3-yl}acetamide], the IC50 was 0.0462 µM. In the case of CC(C)n1ncc(CC(=O)Nc2cncc(C(=O)c3cn(C(C)C)c4ncncc34)c2)c1C(F)(F)F [Example 112, N-{5-[(7-isopropyl-7H-pyrrolo[2,3-d]pyrimidin-5-yl)carbonyl]pyridin-3-yl}-2-[1-isopropyl-5-(trifluoromethyl)-1H-pyrazol-4-yl]acetamide], the IC50 is reported as 0.0578 µM. Cc1ccn(CC(=O)Nc2cncc(C(=O)c3cn(C(C)C)c4ncncc34)c2)n1 [Example 113, N-{5-[(7-isopropyl-7H-pyrrolo[2,3-d]pyrimidin-5-yl)carbonyl]pyridin-3-yl}-2-(3-methyl-1H-pyrazol-1-yl)acetamide] gave an IC50 of 0.3 µM. For CC(C)n1cc(C(=O)c2cncc(NC(=O)Cn3cccn3)c2)c2cncnc21 [Example 114, N-{5-[(7-isopropyl-7H-pyrrolo[2,3-d]pyrimidin-5-yl)carbonyl]pyridin-3-yl}-2-(1H-pyrazol-1-yl)acetamide], the IC50 was 0.976 µM. For Cc1cc(C)n(CC(=O)Nc2cncc(C(=O)c3cn(C(C)C)c4ncncc34)c2)n1 [Example 115, 2-(3,5-dimethyl-1H-pyrazol-1-yl)-N-{5-[(7-isopropyl-7H-pyrrolo[2,3-d]pyrimidin-5-yl)carbonyl]pyridin-3-yl}acetamide], the IC50 was 0.102 µM.

Reference: US8846698B2, “Pyrrolo[2,3-d]pyrimidine tropomysin-related kinase inhibitors” (Pfizer Limited, priority 2011, dated 2014)
